The test system of one data set is Blood Free-Fatty-Acid. Briefly: Blood Free-Fatty-Acid (B.F.F.A.) lowering activity in fasted rats (oral). In kind it is in vivo, rat (male). Conditions: 100 mg/kg p.o.; for B.F.F.A. Level, 1 hr after / B.F.F.A. Level, 3 hr after / B.F.F.A. Level, 5 hr after: fasted rats; for B.F.F.A. Level, Total: total of 1, 3 and 5 hr values. As for the experimental part: Several groups of male rats weighing 200 to 250 g, each group consisting of 5 rats, were used in the test. Assay and control groups were fasted during 24 hours and then orally given 5 % gum arabic suspension with and without the test compound (100 mg/kg p.o.), respectively. All animals tested were decapitated 1 hour after, 3 hours after, or 5 hours after the treatment, and blood samples were drawn for B.F.F.A. value determination. A percentage factor, as B.F.F.A. Level, was determined according to the Itaya-Ui method [K. Itaya, et al.: J. Lipid Research, Vol. 6, 18 (1965)], calculated by the following equation: [formula] b) Result
B.F.F.A. Levels are shown in Table II, together with + and - marks and the total of the three values for each compound.

The test system of the next data set is blood-sugar. Nature of the data set: Hypoglycemic activity in alloxan-treated rats (Blood-Sugar-Level, oral). In kind it is in vivo, rat (alloxan-treated adult male). The settings on record: for Percentage of Blood-Sugar-Level (B.S.L.), 1 hr after / Percentage of Blood-Sugar-Level (B.S.L.), 3 hr after / Percentage of Blood-Sugar-Level (B.S.L.), 5 hr after: alloxan rats, change vs control; for Percentage of Blood-Sugar-Level (B.S.L.), Total: total of 1, 3 and 5 hr percentages. As for the experimental part: Assay and control groups of rats were used, each group consisting of 5 adult male rats weighing 200 to 250 g and showing about 250 to 350 mg/dl-blood as the initial blood-sugar value, after being treated once with 50 mg/kg of alloxan (i.v.) one week before the assay. The assay and control groups were orally administered a 5 % gum arabic suspension with and without the test compound, respectively. Measurement of the absolute blood-sugar value was carried out thrice (i.e. 1 hour after, 3 hours after, and 5 hours after administration) and the values were compared with those of the control group. Blood-sugar values were determined by an assay technique using the marketed enzymatic glucose reagent: Glucostat (Trade Mark of Worthington Biochemical Corporation, Freehold, N.J., U.S.A.).
In effect, the marks + and -correspond to increasing and decreasing
tendency of B.S.L., respectively, after eliminating the difference in
value between the assay and control groups.

The nature of another data set: in vivo. The settings on record: mouse, oral, mice, 24 hours observation. The source says:
For each dose 10 male mice were used, their body-weights ranging from 19 to 21 grams. […] The LD50 means the amount of the test compound being expected to kill just half the number of the animals treated.

Molecules are shown by their SMILES.

`CCCCNC(=O)NS(=O)(=O)c1ccc(C)cc1` [Compound 6, Tolbutamide, reference compound]: in the data set on Blood Free-Fatty-Acid, the “B.F.F.A. Level, 1 hr after” value is on record as -40%; the “B.F.F.A. Level, 3 hr after” value is reported as -45%; the “B.F.F.A. Level, 5 hr after” value is on record as 0%; the “B.F.F.A. Level, Total” value was -85%. In the data set on blood-sugar (100 mg/kg dose), the “Percentage of Blood-Sugar-Level (B.S.L.), 1 hr after” value (from here on “Percentage … 1 hr after”) is recorded as -9%; the “Percentage of Blood-Sugar-Level (B.S.L.), 3 hr after” value (from here on “Percentage … 3 hr after”) is -26%; the “Percentage of Blood-Sugar-Level (B.S.L.), 5 hr after” value (from here on “Percentage … 5 hr after”) is given as -23%; the “Percentage of Blood-Sugar-Level (B.S.L.), Total” value (from here on “Percentage … Total”) is on record as -58%.
On to `CNC(=O)N(C)C(=O)c1cc(C)on1` [Compound 4, N,N'-dimethyl-N-(5-methyl-3-isoxazolylcarbonyl)urea], for which, in the data set with blood-sugar (10 mg/kg dose), the “Percentage … 1 hr after” value is listed as -15%; the “Percentage … 3 hr after” value is given as -36%; the “Percentage … 5 hr after” value is -20%; the “Percentage … Total” value is recorded as -71%. In the data set with blood-sugar (100 mg/kg dose), the “Percentage … 1 hr after” value is -22%; the “Percentage … 3 hr after” value is -51%; the “Percentage … 5 hr after” value is listed as -59%; the “Percentage … Total” value is recorded as -132%.
Broadly, the LD50 is the dose at which mortality reaches 50%. On to `Cc1cc(C(=O)NC(=O)NC(C)C)no1` [N'-i-propyl-N-(5-methyl-3-isoxazolylcarbonyl)urea], for which, in the data set on Blood Free-Fatty-Acid, the “B.F.F.A. Level, 1 hr after” value was -75%; the “B.F.F.A. Level, 3 hr after” value is -67%; the “B.F.F.A. Level, 5 hr after” value is given as -49%; the “B.F.F.A. Level, Total” value is reported as -191%. For the same compound, in “in vivo”, the 50% lethal dose (LD50) at 24 h was 7000 to 8000 mg/kg.
`Cc1cc(C(=O)N(C)C(=O)N(C)C)no1` [Compound 5, N,N',N'-trimethyl-N-(5-methyl-3-isoxazolylcarbonyl)urea]: in the data set with blood-sugar (10 mg/kg dose), the “Percentage … 1 hr after” value is reported as -19%; the “Percentage … 3 hr after” value is recorded as -39%; the “Percentage … 5 hr after” value is on record as -39%; the “Percentage … Total” value is reported as -97%. For the same compound, in the data set with blood-sugar (100 mg/kg dose), the “Percentage … 1 hr after” value is -24%; the “Percentage … 3 hr after” value is reported as -40%; the “Percentage … 5 hr after” value is -40%; the “Percentage … Total” value is listed as -104%.
For the compound `Cc1cc(C(=O)NC(N)=O)no1` [N-(5-methyl-3-isoxazolylcarbonyl)urea], the median lethal dose (LD50) at 24 h in the data set “in vivo” was greater than 10000 mg/kg.
As to `Cc1cc(C(=O)NC(=N)N)no1` [Compound 3, 1-(5-methyl-3-isoxazolylcarbonyl)guanidine], in the data set with Blood Free-Fatty-Acid, the “B.F.F.A. Level, 1 hr after” value is reported as -70%; the “B.F.F.A. Level, 3 hr after” value is -15%; the “B.F.F.A. Level, 5 hr after” value is on record as -8%; the “B.F.F.A. Level, Total” value is recorded as -93%. Also, the LD50 at 24 h in “in vivo” lay in the range of 2000 to 3000 mg/kg. In the data set on blood-sugar (10 mg/kg dose), the “Percentage … 1 hr after” value is -11%; the “Percentage … 3 hr after” value is listed as -39%; the “Percentage … 5 hr after” value is listed as -32%; the “Percentage … Total” value is -82%. Further, in the data set on blood-sugar (100 mg/kg dose), the “Percentage … 1 hr after” value is on record as -30%; the “Percentage … 3 hr after” value was -56%; the “Percentage … 5 hr after” value is -52%; the “Percentage … Total” value was -138%.
Take `Cc1cc(C(=O)NC(=O)N(C)C)no1` [Compound 2, N',N'-dimethyl-N-(5-methyl-3-isoxazolylcarbonyl)urea]: in the data set with blood-sugar (10 mg/kg dose), the “Percentage … 1 hr after” value is on record as -45%; the “Percentage … 3 hr after” value is listed as -59%; the “Percentage … 5 hr after” value was -29%. In addition, in the data set with blood-sugar (100 mg/kg dose), the “Percentage … 1 hr after” value is -33%; the “Percentage … 3 hr after” value was -59%; the “Percentage … 5 hr after” value is given as -59%; the “Percentage … Total” value is listed as -151%.
As to `CCc1cc(C(=O)NC(=O)NC(C)C)no1` [Compound 1, N'-i-propyl-N-(5-ethyl-3-isoxazolylcarbonyl)urea], in the data set with blood-sugar (10 mg/kg dose), the “Percentage … 1 hr after” value is on record as -8%; the “Percentage … 3 hr after” value is on record as “+2%”; the “Percentage … 5 hr after” value is “+2%”; the “Percentage … Total” value is listed as -4%. Moreover, in the data set with blood-sugar (100 mg/kg dose), the “Percentage … 1 hr after” value is reported as -54%; the “Percentage … 3 hr after” value is listed as -63%; the “Percentage … 5 hr after” value is reported as -43%; the “Percentage … Total” value is given as -160%.
In the case of `CCCCNC(=O)NC(=O)c1cc(C)on1` [N'-n-butyl-N-(5-methyl-3-isoxazolylcarbonyl)urea], in the data set with Blood Free-Fatty-Acid, the “B.F.F.A. Level, 1 hr after” value is listed as -59%; the “B.F.F.A. Level, 3 hr after” value is reported as -59%; the “B.F.F.A. Level, 5 hr after” value is listed as -30%; the “B.F.F.A. Level, Total” value was -129%.
As for `Cc1cc(C(=O)NC(=O)NC2CCCCC2)no1` [N'-cyclohexyl-N-(5-methyl-3-isoxazolylcarbonyl)urea], in the data set with Blood Free-Fatty-Acid, the “B.F.F.A. Level, 1 hr after” value was -27%; the “B.F.F.A. Level, 3 hr after” value was -34%; the “B.F.F.A. Level, 5 hr after” value is listed as -23%; the “B.F.F.A. Level, Total” value is -84%.
Regarding `Cc1cc(C(=O)NC(N)=S)no1` [N-(5-methyl-3-isoxazolylcarbonyl)thiourea], in the data set on Blood Free-Fatty-Acid, the “B.F.F.A. Level, 1 hr after” value was -60%; the “B.F.F.A. Level, 3 hr after” value is -36%; the “B.F.F.A. Level, 5 hr after” value is recorded as “+13%”; the “B.F.F.A. Level, Total” value is recorded as -83%.

The record behind these values is patent US4014876A, “Isoxazole derivatives” (Shionogi & Co., Ltd., priority 1969, dated 1977).
